Data as given in US3963756A, “Derivatives of 6-methyl-2H-pyran-2,4(3H)-dione” (Zaidan Hojin Biseibutsu Kagaku Kenkyu Kai, priority 1972, dated 1976).

What was measured:
[1] = target: T1, Dopamine β-Hydroxylase (Bos taurus, UniProt P15101); experiment: Inhibition of dopamine β-hydroxylase (DH); format: biochemical; details: 200 mcg/cc
T1 sequence (P15101 1-610): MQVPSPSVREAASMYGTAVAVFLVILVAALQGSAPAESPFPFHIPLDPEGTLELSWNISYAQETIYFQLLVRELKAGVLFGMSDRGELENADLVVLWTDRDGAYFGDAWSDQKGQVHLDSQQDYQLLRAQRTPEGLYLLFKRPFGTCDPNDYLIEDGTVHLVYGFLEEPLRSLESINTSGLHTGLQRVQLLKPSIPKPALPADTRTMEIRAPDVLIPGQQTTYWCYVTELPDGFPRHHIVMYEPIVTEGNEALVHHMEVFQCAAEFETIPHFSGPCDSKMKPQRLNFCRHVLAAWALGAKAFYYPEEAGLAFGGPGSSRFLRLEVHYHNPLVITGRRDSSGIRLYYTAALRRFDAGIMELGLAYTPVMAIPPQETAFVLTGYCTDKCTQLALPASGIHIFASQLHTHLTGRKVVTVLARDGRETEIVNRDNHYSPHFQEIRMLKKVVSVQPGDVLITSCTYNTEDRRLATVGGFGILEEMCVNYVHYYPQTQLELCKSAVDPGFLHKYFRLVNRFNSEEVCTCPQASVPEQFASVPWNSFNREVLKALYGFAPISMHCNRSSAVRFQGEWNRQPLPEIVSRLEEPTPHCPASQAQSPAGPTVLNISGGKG
Text: (§1) The new compounds of the present invention have been examined for their biological activities, and their inhibition to tyrosine hydroxylase and dopamine β-hydroxylase are summarized below in Table 2. The details of the test methods used and the close relationship and reliable correlation of biological activities between in vitro and in vivo test results are well documented in the literature, e.g. J. Antibiot. 23: 514 (1970); Biochem. Pharmacol., 19: 35 (1970); and J. Am. Chem. Soc. 93: 1285 (1971). […] The effects of this compound on tyrosine hydroxylase and dopamine β-hydroxylase were also tested by the methods described in the Journal of Antibiotics 23:514 (1970) and Biochem. Pharmacol. 19:35 (1970), respectively.
(§2) The chemical structure of the products [I], solvent for hydrogenation and solvent for recrystallization are summarised in Table 1, and the yields of the products [I] are also shown in Table 1 together with their melting points, elemental analysis data, Inhibition (%) of tyrosine hydroxylase (TH) and Inhibition (%) to dopamine β-hydroxylase (DH) at different concentrations of the products [I] of 100 mcg/cc and 200 mcg/cc.

[2] = target: T2, Tyrosine Hydroxylase (Bos taurus, UniProt P17289); experiment: Inhibition of tyrosine hydroxylase (TH); format: biochemical; details: for inhibition at 100 µg/mL: 100 mcg/cc; for inhibition at 200 µg/mL: 200 mcg/cc
T2 sequence (P17289 1-491): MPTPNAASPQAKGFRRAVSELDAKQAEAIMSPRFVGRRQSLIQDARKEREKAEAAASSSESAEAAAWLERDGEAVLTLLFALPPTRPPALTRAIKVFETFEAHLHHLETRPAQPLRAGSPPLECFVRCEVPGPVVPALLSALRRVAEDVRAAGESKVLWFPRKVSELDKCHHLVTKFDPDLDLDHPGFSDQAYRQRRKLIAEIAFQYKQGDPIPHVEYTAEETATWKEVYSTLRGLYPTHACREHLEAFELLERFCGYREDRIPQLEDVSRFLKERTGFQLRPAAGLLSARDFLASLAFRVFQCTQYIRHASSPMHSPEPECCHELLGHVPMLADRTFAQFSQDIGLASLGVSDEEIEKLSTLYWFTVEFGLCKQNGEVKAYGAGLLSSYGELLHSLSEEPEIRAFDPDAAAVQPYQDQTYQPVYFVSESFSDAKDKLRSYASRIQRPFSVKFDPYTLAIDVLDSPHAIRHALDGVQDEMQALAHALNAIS
Text: as §1, §2

[3] = Lowering of blood pressure (general statements); parameters: species or system mammals; details: in vivo

Row | SMILES | inhibition at 200 µg/mL [1] [%] | inhibition at 100 µg/mL [2] [%] | inhibition at 200 µg/mL [2] [%] | blood pressure reducing (hypotensive) activity, in words [3]
1 | CC1=CC(=O)C(C(=O)CCc2ccc3c(c2)OCO3)C(=O)O1 (stereo not shown) [Example 3, 3-(3,4-methylenedioxyhydrocinnamoyl)-6-methyl-2H-pyran-2,4(3H)-dione] | 86.7 | 13.7 | 18.5 | 
2 | CC1=CC(=O)C(C(=O)CCc2ccc(Cl)cc2)C(=O)O1 (stereo not shown) [Example 5] | 84.4 | 66 | 64.8 | 
3 | CC1=CC(=O)C(C(=O)CCc2ccc(Cl)c(Cl)c2)C(=O)O1 (stereo not shown) [Example 6] | 90.4 | 54.6 | 61 | 
4 | CC1=CC(=O)C(C(=O)CCc2ccc(O)cc2)C(=O)O1 (stereo not shown) [Example 7] | 77.7 | 65.2 | 70.6 | 
5 | CC1=CC(=O)C(C(=O)CCc2ccc(C#N)cc2)C(=O)O1 (stereo not shown) [Example 8] | 77.5 | 81.4 | 84.5 | 
6 | CCOc1ccc(CCC(=O)C2C(=O)C=C(C)OC2=O)cc1 (stereo not shown) [Example 11] | 6 |  | 10.1 | 
7 | CC1=CC(=O)C(C(=O)CCCCc2ccccc2)C(=O)O1 (stereo not shown) [Example 12] | 85.8 | 33.7 |  | 
8 | COC(=O)c1ccc(CCC(=O)C2C(=O)C=C(C)OC2=O)cc1 (stereo not shown) [Example 14, 3-(4-methoxycarbonylhydrocinnamoyl)-6-methyl-2H-pyran-2,4(3H)-dione] | 54.9 | 13 | 15 | 
9 | CC1=CC(=O)C(C(=O)CCc2ccc(N(C)C)cc2)C(=O)O1 (stereo not shown) [Example 16] |  | 23 | 26.1 | 
10 | COc1ccccc1CCC(=O)C1C(=O)C=C(C)OC1=O (stereo not shown) [Example 18] | 98.3 | 32 |  | 
11 | CC1=CC(=O)C(C(=O)CCc2ccc(C(C)C)cc2)C(=O)O1 (stereo not shown) [Example 20] | 94.5 | 16.8 | 25.5 | 
12 | CC1=CC(=O)C(C(=O)CCc2c(C)cc(C)cc2C)C(=O)O1 (stereo not shown) [Example 23] | 28.9 | 8.7 |  | 
13 | CC1=CC(=O)C(C(=O)CCc2ccco2)C(=O)O1 (stereo not shown) [Example 24, 3-[3-(2-furyl)propanoyl]-6-methyl-2H-pyran-2,4(3H)-dione] | 60.3 | 44.7 | 45.5 | 
14 | CC1=CC(=O)C(C(=O)CCc2ccc(C)cc2)C(=O)O1 (stereo not shown) [Example 29, 3-(4-methylhydrocinnamoyl)-6-methyl-2H-pyran-2,4(3H)-dione] | 85 | 52.5 | 52.6 | 
15 | CC1=CC(=O)C(C(=O)CCc2ccc(C)o2)C(=O)O1 (stereo not shown) [Example 30] | 100 | 23.5 |  | 
16 | CC1=CC(=O)C(C(=O)CCc2ccc(F)cc2)C(=O)O1 (stereo not shown) [Example 31] | 42 | 60.1 |  | 
17 | CC1=CC(=O)C(C(=O)CCc2ccc(C(F)(F)F)cc2)C(=O)O1 (stereo not shown) [Example 32] | 88 | 50.4 |  | 
18 | CC1=CC(=O)C(C(=O)CCc2ccc(C(N)=O)cc2)C(=O)O1 (stereo not shown) [Example 33] | 30.3 | 20.5 |  | 
19 | CC1=CC(=O)C(C(=O)CCc2cc(Cl)cc(Cl)c2O)C(=O)O1 (stereo not shown) [Example 34] | 82.3 | 53.6 | 69.3 | 
20 | CC1=CC(=O)C(C(=O)CCc2c(O)ccc3ccccc23)C(=O)O1 (stereo not shown) [Example 37] | 44.7 | 41.8 | 57.2 | 
21 | CC1=CC(=O)C(C(=O)CCc2cccs2)C(=O)O1 (stereo not shown) [Example 38] | 30.3 | 52.3 |  | 
22 | CC1=CC(=O)C(C(=O)CCc2ccc[nH]2)C(=O)O1 (stereo not shown) [Example 39] | 25.1 | 30.9 |  | 

Now from value to compound, other results behind:

Row | inhibition at 200 µg/mL [1] [%] | inhibition at 100 µg/mL [2] [%] | inhibition at 200 µg/mL [2] [%] | SMILES | blood pressure reducing (hypotensive) activity, in words [3]
23 | 32.5 | 61.3 | 72.5 | COc1ccc(CCC(=O)C2C(=O)C=C(C)OC2=O)cc1OC (stereo not shown) [3-(3,4-dimethoxyhydrocinnamoyl)-6-methyl-2H-pyran-2,4(3H)-dione, reference compound] | active in reducing blood pressure
24 | 35 | 40.7 | 47.9 | COc1ccc(CCC(=O)C2C(=O)C=C(C)OC2=O)cc1 (stereo not shown) [Example 1, 3-(4-methoxyhydrocinnamoyl)-6-methyl-2H-pyran-2,4(3H)-dione] | 
25 | 67 | 80.8 | 93.9 | COc1ccc(CCC(=O)C2C(=O)C=C(C)OC2=O)cc1O (stereo not shown) [Example 2, 3-(3-hydroxy-4-methoxyhydrocinnamoyl)-6-methyl-2H-pyran-2,4(3H)-dione] | 
26 | 81.7 | 64.7 | 67.2 | CC1=CC(=O)C(C(=O)CCc2cccc(O)c2)C(=O)O1 (stereo not shown) [Example 4] | 
27 | 20.6 | 80.6 | 93.5 | CC1=CC(=O)C(C(=O)CCc2ccc(O)c(O)c2)C(=O)O1 (stereo not shown) [Example 9] | 
28 | 95 | 12.7 | 26.5 | CC1=CC(=O)C(C(=O)CCc2cccc(Cl)c2)C(=O)O1 (stereo not shown) [Example 10] | 
29 | 52.5 | 44.4 | 59.5 | CC1=CC(=O)C(C(=O)CCc2ccccc2O)C(=O)O1 (stereo not shown) [Example 13] | 
30 |  | 20.9 | 29.9 | COc1cccc(CCC(=O)C2C(=O)C=C(C)OC2=O)c1O (stereo not shown) [Example 15] | 
31 | 89.8 | 37.1 | 48.4 | CC1=CC(=O)C(C(=O)CCc2ccccc2Cl)C(=O)O1 (stereo not shown) [Example 17] | 
32 | 29.6 | 14.6 | 26 | COc1cc(CCC(=O)C2C(=O)C=C(C)OC2=O)ccc1O (stereo not shown) [Example 19] | 
33 | 74.7 | 39 |  | COc1cccc(CCC(=O)C2C(=O)C=C(C)OC2=O)c1OC (stereo not shown) [Example 21] | 
34 | 61.5 | 22.7 | 24.4 | CCOc1cc(CCC(=O)C2C(=O)C=C(C)OC2=O)ccc1O (stereo not shown) [Example 22] | 
35 | 83.5 | 32 | 34.9 | COc1cccc(CCC(=O)C2C(=O)C=C(C)OC2=O)c1 (stereo not shown) [Example 25] | 
36 | 97 | 11.3 | 19.8 | CC1=CC(=O)C(C(=O)CCc2cccc(Br)c2)C(=O)O1 (stereo not shown) [Example 26] | 
37 | 44.9 | 20 | 26 | COc1ccc(CCC(=O)C2C(=O)C=C(C)OC2=O)c(OC)c1 (stereo not shown) [Example 27] | 
38 | 100 | 29.8 | 29.1 | CC1=CC(=O)C(C(=O)CCc2ccc(Cl)cc2Cl)C(=O)O1 (stereo not shown) [Example 28] | 
39 | 43.6 | 45.8 |  | COc1cc(CCC(=O)C2C(=O)C=C(C)OC2=O)cc(OC)c1O (stereo not shown) [Example 35] | 
40 | 56.2 | 34.8 |  | CC1=CC(=O)C(C(=O)CCc2cccc3ccccc23)C(=O)O1 (stereo not shown) [Example 36] | 
